The record followed here is patent publication US20080287396A1, “Phosphonated Fluoroquinolones, Antibacterial Analogs Thereof, and Methods for the Prevention and Treatment of Bone and Joint Infections” (TARGANTA THERAPEUTICA INC., priority 2005, published 2008).

One data set deals with Hela cells. The data set can be described thus: Cytotoxicity assay (MTS reduction). Format: cell-based. As to conditions: concentrations up to 100 μM, 18 h, MTS reagent; data not shown. The method, then:
Selected compounds were also tested for their ability to inhibit growth of mammalian cells so as to ascertain levels of cytotoxicity to the mammalian host, via an assay measuring the biological reduction of the inner salt of (3-(4,5-dimethylthiazol-2-yl)-5-(3-carboxymethoxyphenyl)-2-(4-sulfophenyl)-2H-tetrazolium (MTS reagent). Assays were performed in 96-well microtiter plates. Briefly, compounds at 100, 50, 25, and 12.5 μM concentrations were incubated with 2×10^4 Hela cells per well in Dulbecco's Modified Eagle Medium (Invitrogen Corporation) containing 1% Bovine Growth Serum (HyClone) for 18 h at 37° C. under 5% CO2.
Background: Tetrazolium assays rely on reduction of a dye to a coloured formazan, in cell work by metabolically active cells.

Data set [1] is described as follows: Bone powder binding, LC/MS detection. Conditions: 100 μM compound, Tris-HCl pH 7, 0.15M NaCl, ground rat tibia bone, 10 min. The procedure:
The ability of the example molecules to bind to bone powder was established in two parallel fashions, using either LC/MS or fluorometric detection. For LC/MS detection, a stock solution (5 mM) of the compound to be tested was added to 0.1M Tris-HCl buffer pH 7, 0.15M NaCl to reach a final concentration of 100 μM. Triplicate samples (1 mL) of the compound solutions were intensively shaken for 10 min with or without 25 mg of fresh or 20 mg of vacuum dried ground rat tibia bone. The samples were then centrifuged for 15 min at 10 000 g. The presence of unbound compound was measured by injection of 30 μL of each of the supernatants into an Agilent 1100™ LC/UV system. For fluorometric detection, an individual compound was dissolved in PBS or water (compound 52) and resuspended at a concentration of 1 mg/ml in a slurry of bone meal powder (Now Foods, Bloomingdale, Ill., USA) in PBS at 10 mg/ml. The suspension of drug/prodrug in bone meal powder was incubated at 37° C. for 1 h to allow for binding, and centrifuged at 13 000 rpm for 2 min, before recovering the supernatant. The bone meal powder pellet was then washed three times with 1 ml of PBS. All supernatants were saved and assessed for fluoroquinolone content by fluorescence measurements at excitation/emission wavelengths of 280/465 nm. The amount of fluoroquinolone was determined from standard curves generated for each experiment. Amount of drug/prodrug bound to bone powder was deduced from the difference between the input amount (typically 1 mg) and the amount recovered in the supernatants after binding. In all binding experiments, >99% of input drug was recovered in the supernatant for the parent drugs.

Data set [2] concerns S. aureus strains ATCC13709 and RN4220. The data set is described as follows: Susceptibility testing (MIC) in the presence of serum. Format: cell-based. As to conditions: Staphylococcus aureus. The method, then: (§1) Susceptibility of S. aureus strains ATCC13709 and RN4220 to the commercial antibiotics and synthesized compounds was determined by following the guidelines set by the Clinical and Laboratory Standards Institute (formerly the National Committee for Clinical Laboratory Standards) (M26-A). Compounds were diluted two-fold serially in DMSO and transferred to cation-adjusted Mueller Hinton broth (CAMHB; Becton Dickinson). 50 μL of compounds diluted in CAMHB was mixed with 100 μL of bacteria diluted in CAMHB in 96-well microtiter plates. The final number of micro-organisms in the assay was 5×10^5 c.f.u. per mL and the final concentration of DMSO in the assay was 1.25%. Assays were set up in duplicate and incubated at 37° C. for 18 h. The concentration of compound that inhibited visible growth was reported as the minimum inhibitory concentration (MIC).
Susceptibility testing experiments were also carried out in the presence of serum. These experiments were carried out similar to the susceptibility testing with the following modifications. 75 μL of compounds diluted in CAMHB was mixed with 75 μL of bacteria diluted in 100% serum from any given source (commercial pooled mouse serum (MS) and human serum (HS), Equitech-Bio Inc.) or diluted in 8% purified human serum albumin (HSA) (Calbiochem). […]

Data set [3] can be described thus: Bone powder binding, fluorometric detection. As to conditions: for Binding to bone (%) Fluorescence: 1 mg/ml compound, bone meal powder 10 mg/ml in PBS, 37° C., 1 h. A digest of the protocol: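 LC/MS method: 100 μM compound in 0.1 M Tris-HCl pH 7, 0.15 M NaCl shaken 10 min with or without ground rat tibia, centrifuged, unbound compound measured in supernatant. Fluorometric method: 1 mg/ml compound in 10 mg/ml bone meal/PBS, 1 h at 37 °C, pellet washed. Supernatant fluoroquinolone read at 280/465 nm; bound amount taken as input minus recovered.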

The nature of data set [4]: Regeneration of drug from bone powder-bound prodrug. In kind it is in vitro ADME. The procedure: Amounts of drug “regenerated” from the phosphonated parent prodrug were measured as follows. Washed bone powder-bound prodrugs from the above section were resuspended in 400 μL PBS or in 400 μL 50% (v/v in PBS) human or rat serum. […] Methanol (5× volume relative to supernatant) was added to each supernatant and the mixture was vortexed on a floor model vortex for 15 min to extract freed fluoroquinolone. The mixture was then centrifuged at 10 000 rpm for 15 min to pellet the insoluble material. The supernatant containing the extracted fluoroquinolone was recovered and evaporated to dryness in a speed vac. The dried pellets were resuspended in PBS and the amount of fluoroquinolone was determined by fluorescence measurements as described above. The percentage of drug regenerated was deduced from the difference between amount of bound prodrug and the amount of regenerated drug. The identity of regenerated drug was deduced by MIC determination; MICs of regenerated material matched those of parent drugs but not those of prodrugs.

In data set [5] the test system is S. aureus strains ATCC13709 and RN4220. The data set can be described thus: microbe, parasite or virus in culture. Conditions: Staphylococcus aureus, read-out: minimum inhibitory concentration (MIC). Format: cell-based. The method, then: as §1
Another data set concerns S. aureus ATCC 13709. The data set can be described thus: Prophylactic model of bone infection in rats. Format: in vivo, rat. A digest of the protocol: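 Female CD rats (n=5/group) given intra-tibial 5% sodium morrhuate then S. aureus (ca. 5×10^5 CFU/rat), hole sealed with dental cement. Prodrugs given as single IV bolus in 0.9% saline at various times before infection; parent at molar equivalent dose. Tibiae harvested 24 h postinfection; Log CFU/g bone, detection limit 2 Log CFU/g.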

Where [6] appears, read: ATCC13709, CAMHB, 37° C., 18 h, data not shown.

Converted amounts (≈) assume the structure as drawn.

`COc1c(N2CCNC(C)C2)c(F)cc2c(=O)c(C(=O)OCCCC(P(=O)(O)O)P(=O)(O)O)cn(C3CC3)c12` (stereo not drawn) [Compound 18, 4,4-bisphosphonobutyl 7-(3-methylpiperazin-1-yl)-1-cyclopropyl-6-fluoro-1,4-dihydro-8-methoxy-4-oxoquinoline-3-carboxylate]: the cytotoxicity result in the data set with Hela cells is reported as “no signs of any cytotoxicity”. Further, in data set [1], the “Binding to bone (%) LC/MS” value is on record as 96.0 ± 2.4%.
As to `COc1c(N2C[C@@H]3CCCN[C@@H]3C2)c(F)cc2c(=O)c(C(=O)OCCCCC(P(=O)(O)O)P(=O)(O)O)cn(C3CC3)c12` [Compound 25, 5,5-bisphosphonopentyl 7-((4aS,7aS)-octahydropyrrolo[3,4-b]pyridin-6-yl)-1-cyclopropyl-6-fluoro-1,4-dihydro-8-methoxy-4-oxoquinoline-3-carboxylate], the MIC in data set [2] (ATCC13709, in serum (kind not stated), read-out: MIC in serum) was 32 µg/mL; in data set [5] (setting [6]), 32 µg/mL (≈ 50.7 µM). In addition, the “Binding to bone (%) Fluorescence” value in data set [3] worked out at 92.7%. In addition, the “drug released from the bone matter after 7 days of incubation, in words” value in data set [4] (7 days, medium not stated) is given as “signs of drug release”. Besides, the “Binding to bone (%) LC/MS” value in data set [1] came out at 87.6 ± 11.5%.
In the case of `CCOP(=O)(OCC)C(CCCCOC(=O)c1cn(C2CC2)c2c(OC)c(N3C[C@@H]4CCCN[C@@H]4C3)c(F)cc2c1=O)P(=O)(OCC)OCC.O=C(O)C(F)(F)F` [Compound 26, 5,5-bis(diethylphosphono)pentyl 7-((4aS,7aS)-octahydropyrrolo[3,4-b]pyridin-6-yl)-1-cyclopropyl-6-fluoro-1,4-dihydro-8-methoxy-4-oxoquinoline-3-carboxylate, trifluoroacetate salt], in the data set on Hela cells, the cytotoxicity entry was “no signs of any cytotoxicity”. For the same molecule, the MIC in data set [2] (ATCC13709, read-out: MIC in the presence of 50% mouse serum in the medium) was found to be 0.5 µg/mL; in data set [5] (ATCC13709, 18 h), 32 µg/mL.
Turning to `COc1c(N2CCNC(C)C2)c(F)cc2c(=O)c(C(=O)OCCCCC(P(=O)(O)O)P(=O)(O)O)cn(C3CC3)c12` (stereo not drawn) [Compound 28, 5,5-bisphosphonopentyl 7-(3-methylpiperazin-1-yl)-1-cyclopropyl-6-fluoro-1,4-dihydro-8-methoxy-4-oxoquinoline-3-carboxylate], the cytotoxicity entry in the data set on Hela cells is “no signs of any cytotoxicity”. Moreover, the “Binding to bone (%) LC/MS” value in data set [1] was 91.9 ± 5.5%.
`COc1c(N2CCN(C(=O)CC(C)(C)c3cc(P(=O)(O)CP(=O)(O)O)ccc3OC(C)=O)C(C)C2)c(F)cc2c(=O)c(C(=O)O)cn(C3CC3)c12` (stereo not drawn) [Compound 141]: in the data set with S. aureus ATCC 13709 (45.4 mg/kg IV, 2 days prior to infection), the “Measured bacterial titer (Log CFU/g of bone) Test compound” value is listed as 2.40 ± 0.44 Log CFU/g of bone. Further, the “prophylactic effect in rat model of bone infection, in words” value with S. aureus ATCC 13709 (Table 4 and FIGS. 6-8, doses as in Table 4) is given as “efficient prophylactic effect”. Further, the “Binding to bone (%) Fluorescence” value in data set [3] is on record as 36.6%. The “binding to osseous matter, in words” value in data set [3] (bisphosphonates bearing three hydroxy groups) is “less effectively bound”. In addition, the “effect of the medium (presence or absence of serum) on regeneration rate” value in data set [4] (PBS vs serum) was “fairly similar rates”. In addition, the MIC in data set [5] (setting [6]) worked out at 4 µg/mL (≈ 5.32 µM).
